In patent publication US20110136163A1, “Method of Toxicological Assessment” (priority 2008, published 2011):
“Also recorded” adds a separate entry of the source. *1 amine or outer side, *2 acyl side, *3 side chain or, on linkers, in order; H or OH if unused. Where a SMILES comes first, the peptide text is derived from it. Bridges are numbered along the chain shown (N, C = ends). [ ]: non-standard residue; d: D form. Adda = CO[C@@H](Cc1ccccc1)[C@@H](C)/C=C(C)/C=C/[C@H](N[*:1])[C@H](C)C(=O)[*:2]; dAsp(3S-Me) = C[C@H](C(=O)[*:3])[C@@H](N[*:1])C(=O)[*:2]; d(γGlu) = O=C(O)[C@@H](CCC(=O)[*:2])N[*:1]; NMeDha = C=C(NC)C(=O)O

Key:
[1] = test system: isolated rat liver mitochondria; type: biochemical
[2] = test system: HepG2 cells; experiment: O2 consumption toxicity assay in HepG2 cells, with and without transport reagent; type: cell-based
[3] = test system: Jurkat cells; experiment: ATP content in Jurkat cells, with and without transport reagent; type: cell-based
From the text: A number of other transport reagents, toxicants, cell models and parameters of cellular function were examined, using the general assay format described in Example 1.

[4] = test system: Jurkat cells; experiment: O2 consumption toxicity assay in Jurkat cells, with and without transport reagent; type: cell-based
[5] = test system: Primary rat hepatocytes; type: cell-based
[6] = test system: cells; type: cell-based
[7] = test system: HepG2 cells; experiment: Western blot of protein phosphorylation (anti-phospho-serine) in HepG2 cells; type: cell-based
Procedure: FIG. 2. Western blot analysis of HepG2 cells treated with MCLR in the presence of EndoPorter for 24 h, primary antibodies used were anti-phospho-serine. Blot analysis show dependence of protein phosphorylation on MCLR concentration.
A number of other markers of cellular function were also investigated for their alterations in response to MCLR treatment of cells in the presence of transport reagent. […] Metabolic parameters such as intracellular levels of ATP and NAD(P)H were seen unchanged.

Molecule	Effect on O2 consumption of isolated mitochondria [1]	Concentration above which significant effects on O2 consumption were seen [2]	Peak of bell-shape dose response of O2 consumption [2]	ATP content, observed effect [3]	Concentration above which significant effects on O2 consumption were seen [4]	O2 consumption / toxicity, observed effect [4]	O2 consumption, observed effect [4]	Concentration at which parameters of cellular function were affected [5] [nM]	O2 consumption, observed effect [5]	IC50 ([5]; read-out: O2 consumption, IC50) [nM]	Intracellular level of ATP [6]	Intracellular level of NAD(P)H [6]	Protein phosphorylation/dephosphorylation in Western blots [7]
C=C1C(=O)N[C@H](C)C(=O)N[C@@H](CC(C)C)C(=O)N[C@@H](C(=O)O)[C@H](C)C(=O)N[C@@H](CCCNC(=N)N)C(=O)N[C@@H](/C=C/C(C)=C/[C@H](C)[C@H](Cc2ccccc2)OC)[C@H](C)C(=O)N[C@@H](C(=O)O)CCC(=O)N1C [MCLR, Microcystin-LR] (R[Adda][d(γGlu)][NMeDha][dA]L[dAsp(3S-Me)]-OH; lactam N-7)	uncoupling effect	above 0.1 nM	around 0.5 nM	No effect at 10 μM; also recorded: Dose dependent decrease	above 0.1 nM	strong toxicity; also recorded: respiration decreased	no detectable toxicity; also recorded: No effect at 10 μM	≥ 0.5	dose-dependent decreases in oxygen consumption	2.74	unchanged	unchanged	altered protein phosphorylation/dephosphorylation
Aflatoxin B1	–	–	–	–	–	increased toxicity	–	–	–	–	–	–	–
